{"source": "patent US20230061352A1", "about": "“DRUG DELIVERY DEVICE” (priority 2020, published 2023)", "key": {"[1]": {"assay": "LCMS drug levels in porcine lymph tissue from the anterior jugular chain", "format": "in vivo, pig", "settings": "released from implanted device; necropsy at 0, 48, 120, 240 and 336 hrs; FIGS. 12 and 13", "excerpt": "(§1) Devices produced in accordance with the methods of EXAMPLE 1 were implanted into tonsillectomized pigs.\n(§2) The specific LCMS method used for detection of Bupivacaine and Lidocaine has been validated in work by Hoizey et al (2005) (Hoizey G, et al. Sensitive bioassay of bupivacaine in human plasma by liquid-chromatography-ion trap mass spectrometry. Journal of pharmaceutical and biomedical analysis. 2005; 39:587-92).\n(§3) The specific LCMS method used for detection of Bupivacaine and Lidocaine has been validated in work by Hoizey et al (2005)."}, "[2]": {"assay": "LCMS drug levels in porcine serum from the internal jugular vein", "format": "in vivo, pig", "settings": "released from implanted device; 0, 1, 2, 4, 24, 48, 72, 120, 240, 336 hrs; FIGS. 14 and 15", "excerpt": "as §1, §2, §3"}, "[3]": {"assay": "Qualitative sample analysis (Q1 test) of released drug by LCMS", "format": "physicochemical", "settings": "drug released from the device; chromatograms, FIGS. 7 and 8", "experimental": "Qualitative sample analysis (or Q1 test) was performed on select samples to assure single spikes were detected at frequencies consistent with calibration curves and that no secondary spikes were detected (indicating LCMS detection of single molecules without breakdown products)."}}, "note": "“Also recorded” adds a separate entry of the source."}
{"smiles": "CCCCN1CCCCC1C(=O)Nc1c(C)cccc1C", "note": "(centres unmarked) [bupivacaine]", "values": [{"measurement": "drug level detected in locoregional (lymph) tissue", "setting": "[1]", "result": "< 4", "unit": "microgram per ml"}, {"measurement": "drug level detected in serum (systemic uptake)", "setting": "[2]", "result": "< 4", "unit": "microgram per ml"}, {"measurement": "integrity of the released drug molecule (no breakdown products)", "setting": "[3]", "result": "active form is preserved; also recorded: complete, intact bupivacaine molecule"}]}
{"smiles": "CCN(CC)CC(=O)Nc1c(C)cccc1C", "note": "[lignocaine]", "values": [{"measurement": "drug level detected in locoregional (lymph) tissue", "setting": "[1]", "result": "< 5.6", "unit": "microgram per ml"}, {"measurement": "integrity of the released drug molecule (no breakdown products)", "setting": "[3]", "result": "active form is preserved; also recorded: complete, intact lignocaine molecule"}]}
